Molecular target: Cannabinoid receptor 1 (Rattus norvegicus, UniProt P20272)
Experiment: Displacement of [3H]CP-55940 binding to Cannabinoid receptor 1 in rat brain membranes
Type: cell membranes

Chain of Cannabinoid receptor 1 (P20272 whole entry): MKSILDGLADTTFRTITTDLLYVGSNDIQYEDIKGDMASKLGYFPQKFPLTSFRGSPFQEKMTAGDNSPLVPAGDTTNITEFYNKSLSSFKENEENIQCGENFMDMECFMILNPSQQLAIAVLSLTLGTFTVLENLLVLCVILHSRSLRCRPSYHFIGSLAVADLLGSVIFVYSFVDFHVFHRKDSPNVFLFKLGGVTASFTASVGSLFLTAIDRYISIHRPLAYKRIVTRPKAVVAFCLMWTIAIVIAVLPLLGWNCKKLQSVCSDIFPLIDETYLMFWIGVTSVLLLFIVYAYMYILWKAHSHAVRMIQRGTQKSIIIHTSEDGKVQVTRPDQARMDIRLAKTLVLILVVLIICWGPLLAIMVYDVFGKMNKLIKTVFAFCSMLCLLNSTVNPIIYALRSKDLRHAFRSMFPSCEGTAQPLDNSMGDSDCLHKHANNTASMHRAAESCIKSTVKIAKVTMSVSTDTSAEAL

Row | SMILES | Ki [nM]
1 | CCCCCCC(C)(C)c1ccc([C@H]2C[C@@H](O)C[C@H]3CC[C@@H](CO)C[C@@H]32)c(O)c1 | 0.11
2 | CCCCCCC(C)(C)c1cc(O)c2c(c1)OC(C)(C)[C@H]1CC=C(CO)C[C@H]21 [DEXANABINOL] | 360
3 | CCCCCCC(C)(C)c1cc(O)c2c(c1)OC(C)(C)[C@@H]1CC=C(CO)C[C@@H]21 | 0.23

Reference: ChEMBL document CHEMBL1131589 (J Med Chem, 1998)
